Reference: patent US8409570B2, “Method of inducing apoptosis using anti-DR5 antibodies” (Genentech, Inc., priority 2005, dated 2013)

Legend:
[1] = tested on: HCT15 xenograft model of colorectal cancer; assay: HCT15 xenograft model; type: in vivo, mouse; conditions: Apomab 7.3 10 mg/kg, CPT-11 80 mg/kg, alone or combined; FIG. 26
[2] = tested on: Colo 205 human colon carcinoma xenografts; assay: Colo 205 human colon carcinoma xenografts in nude mice, tumor growth delay (Example 8); type: in vivo, mouse; conditions: endpoint tumor volume 1000 mm^3; for tumor growth delay (TGD): Apo2L.0 60 mg/kg i.p. 5/2/5, Apomab 7.3 3 mg/kg i.v. Days 1, 8, B20-4.1 10 mg/kg i.p. Days 1 and 8; for tumor growth delay (TGD), percentage of control median TTE: same regimens
Description: Xenografts were initiated from cultured Colo 205 human colon carcinoma cells. […] On the day of tumor cell implant, Colo 205 cells were harvested and resuspended in 50% Matrigel matrix (BD Biosciences) in PBS at a concentration of 5×10^6 cells/mL.
The test materials were kept on ice during dosing, and dosing solutions were subsequently stored at 4° C.
Tumors were measured twice weekly using calipers. […] The time to endpoint (TTE) for each mouse was calculated from the following equation: […]
Where b is the intercept and m is the slope of the line obtained by linear regression of a log-transformed tumor growth data set. The data set was comprised of the first observation that exceeded the study endpoint volume and the three consecutive observations that immediately preceded the attainment of the endpoint volume. […] Animals suffering treatment-related death or non-treatment related death due to metastasis were assigned a TTE value equal to the day of death. Animals suffering non-treatment related death or death of unknown causes were excluded from the TTE calculations.
Treatment outcome was evaluated by tumor growth delay (TGD), which is defined as the increase in the median time to endpoint (TTE) in the treatment group compared to the control group: TGD=T−C,
Treatment may cause partial regression (PR) or complete regression (CR) of tumor in an animal In a PR response, the tumor volume is 50% or less of its Day 1 volume for three consecutive measurements during the course of the study, and equal to or greater than 13.5 mm^3 for one or more of these three measurements. In a CR response, the tumor volume is less than 13 5 mm^3 for one or more of these three measurements during the course of the study. An animal with a CR response at the termination of the study is additionally classified as a tumor-free survivor (TFS). Regression responses were monitored and recorded.
The Logrank test was use to analyze the significance of the differences between the TTE values of treated and control groups. Two-tailed statistical analyses were conducted at significance level P=0.05, with results deemed significant at 0.01 P 0.05, and highly significant at P<0.01.
Median tumor growth curves show group median tumor volumes as a function of time.

[3] = tested on: human Colo 205 colon carcinoma xenograft; assay: Human Colo 205 carcinoma xenograft model, tumor growth delay (Example 10); conditions: for TGD: maximum possible 193%, all treatments i.p.; for MTV(n), median tumor volume on Day 61: n = mice remaining on Day 61
Description: The animals were fed ad libitum water and NIH 31 Modified and Irradiated Lab Diet® consisting of 18.0% crude protein, 5.0% crude fat, and 5.0% crude fiber. The mice were housed on irradiated ALPHA-Dri® Bed-O'Cobs® Laboratory Animal Bedding in static microisolators on a 12-hour light cycle at 21-22° C. and 40-60% humidity.
Human Colo 205 colon carcinoma cells were cultured in RPMI 1640 medium containing 100 units/mL penicillin G sodium, 100 μg/mL streptomycin sulfate, 0.25 μg/mL amphotericin B, and 25 μg/mL gentamicin. The medium was supplemented with 10% heat-inactivated fetal bovine serum, 2 mM glutamine, and 1 mM sodium bicarbonate. The tumor cells were cultured in tissue culture flasks in a humidified incubator at 37° C., in an atmosphere of 5% CO2 and 95% air.
The human Colo 205 carcinoma cells used for implantation were harvested during log phase growth and resuspended in 50% matrigel at 5×10^6 cells/mL. Each mouse was injected s.c. in the right flank with 1×10^6 cells (0.2 mL cell suspension). Tumors were monitored twice weekly and then daily as their volumes approached 100-300 mm^3 On Day 1 of the study, animals were sorted into treatment groups with tumor sizes of 108.0-220.5 mm^3 and a group mean tumor size of 149.8 mm^3 Tumor weight may be estimated with the assumption that 1 mg is equivalent to 1 mm^3 of tumor volume.
The test materials were provided ready for dosing. The dosing solutions were stored at 4° C.
Mice were sorted into six groups with ten mice per group. All treatments were administered intraperitoneally (i.p.).
Apo2L.0 and its vehicle were each administered once daily on Days 1-5 (qd×5). […] Control Group 1 mice were treated with the vehicle for Apo2L.0. […] In all groups, the dosing volume of 0.2 ml/20 g mouse was scaled to the body weight of each animal.

[4] = tested on: SKMES-1 human NSCLC xenograft; assay: SKMES-1 human NSCLC xenograft, tumor growth delay (Example 9); conditions: for median TTE: 1500 mm^3 endpoint volume, 45-day study, control median TTE 18.9 days; for TGD, % of control / TGD: versus vehicle control; for TGD, % of control: maximum achievable 138%; for TGD: maximum achievable 26.1 days
Description: Xenografts were initiated from SKMES-1 lung tumors maintained by serial transplantation at PRC. Each test mouse received a 1 mm^3 SKMES-1 tumor fragment implanted subcutaneously in the right flank, and tumor growth was monitored. Thirteen days later, designated as Day 1 of the study, individual tumor volumes ranged from 63 to 144 mm^3, and the animals were sorted into four groups each consisting of ten mice and two groups each consisting of nine mice. Mean tumor volumes were 93 to 95 mm^3.
All test materials were provided ready to dose at 0.1 mL per 20 g body weight (5 mL/kg), and were stored at −80° C. upon receipt. The test materials were thawed on the first day of dosing, kept on ice during dosing, then subsequently stored at 4° C. Carboplatin ([…] ® injection, Bristol Myers Squibb) was diluted with 5% dextrose in water (D5W) to yield the desired dose in a volume of 0.2 mL per 10 g body weight (10 mL/kg). Paclitaxel (Natural Pharmaceuticals, Inc.) was diluted with D5W on each day of dosing from a 10× stock solution to yield a vehicle consisting of 5% ethanol and 5% Cremophor EL in 90% D5W (5% EC vehicle), so that the desired dose was delivered in 0.1 mL per 20 g body weight.
Group 1 (vehicle control) mice received vehicle administered intraperitoneally once daily for five days (i.p. qd×5), and served as tumor growth controls. […] Each dose was administered in the volume indicated in the previous section, and was scaled to the body weight of the animal.

[5] = tested on: Colo 205 human colon carcinoma xenograft; assay: Colo 205 xenograft athymic nude mouse model (Example 2); type: in vivo
Description: All mice were ear-tagged for identification. Once the tumor volume was approximately 100-200 mm^3, the Colo 205 tumor-bearing mice were randomly grouped and treatment was administered.
In some instances, 3 or 4 mice were euthanized from the vehicle and 10 mg/kg groups, and serum and tumors were collected at 5 minutes, 24 hours or 48 hours post treatment for serum drug concentration and tumor histology studies. In the remaining mice, tumor measurements were taken twice a week for the first 2 weeks, then once a week for another 4 weeks.

Colo 205 xenograft = Colo 205 xenograft model, Apomabs 23.3, 25.3 and 7.3 (Example 7); type: in vivo, mouse; conditions: single 3 or 10 mg/kg i.v. dose; 25-day data; FIG. 33
Description: All mice were ear tagged for identification. […] Group 4 was administered a single 3 mg/kg/mouse i.v. dose of Apomab 23.3. Group 5 was administered a single […] i.v. dose of Apomab 23.3. […] 24 hours post treatment all mice were weighed. Tumors were measured 2×/week for the first 2 weeks and then weekly for the next 4 weeks. After 6 weeks or when the tumors reached a size of >1000 mm^3, the mice were sacrificed.

BxPC3 xenograft = BxPC3 xenograft model of human pancreatic adenocarcinoma; type: in vivo, mouse; conditions: Apomab 7.3 10 mg/kg i.v., gemcitabine 160 mg/kg ip; FIG. 29
H2122 xenograft = H2122 xenograft model of human lung cancer; type: in vivo, mouse
Description: All mice were ear tagged for identification.
All mice were ear tagged for identification. […] Any mice excluded from the treatment groups were euthanized.
Group A was a vehicle-treated control group (0.5 M arginine succinate, 20 mM Tris, 0.02% Tween 20, pH 7.2). […] 48 hours following the first treatment, three mice from each of Groups B, C and D were euthanized, and their tumors were collected as follows. One tumor was preserved in 10% formalin for histology study. One tumor was frozen in liquid nitrogen for RNA studies. One tumor was frozen in liquid nitrogen for Western blot. Tumor measurements were taken 2×/week for the first 2 weeks then 1×/week for the next 4 weeks.

[6] = tested on: Colo205 human colon carcinoma cell line; assay: Bioassay: tumor cell growth inhibition/killing (AlamarBlue); type: cell-based; conditions: Apomab framework variants; last column of Table 12
Description: Bioassay: tumor cell growth inhibition/killing. The apparent potency of each antibody variant was determined in an in vitro tumor cell-killing assay. Colo205 human colon carcinoma cell line was cultured in RPMI medium containing 10% fetal bovine serum. […] Cells (20,000/well) were then added to the plates. The plates were incubated at 37° C. for a total of 48 h. AlamarBlue was added to the wells for the last 3 h of incubation. Fluorescence was read using a fluorometer with excitation at 530 nm and emission of 590 nm. The data were analyzed using a four parameter curve-fitting program.

CCc1c2c(nc3ccc(OC(=O)N4CCC(N5CCCCC5)CC4)cc13)-c1cc3c(c(=O)n1C2)COC(=O)[C@]3(O)CC [CPT-11, irinotecan, reference compound]
anticancer activity [1]: effective when administered alone

Apo2L.0: soluble form of Apo-2 ligand (TRAIL), 114-281 extracellular domain sequence
tumor growth delay (TGD) [2]: 28.4 days
tumor growth delay (TGD), percentage of control median TTE [2]: 190%
median TTE ([3]; 1500 mm^3 endpoint volume, 61-day study, control median TTE 20.8 days): 53.6 days
TGD [3]: 158%
MTV(n), median tumor volume on Day 61 [3]: 1,210 mm^3
LTTFS (long-term tumor-free survivor) ([3]; ten mice per group): One
T-C ([3]; versus vehicle control): 32.8 days
median TTE [4]: 22.9 days
TGD, % of control [4]: 21%
TGD [4]: 4.0 days

Apomab 7.3: anti-DR5 IgG: heavy chain TH7 (G33A, N53Q, L102Y) + light chain TL3 (Q24S, K51A, R91A); SEQ ID NOS: 18 and 20
reversal of efficacy during test period ([5]; 1 mg/kg and 3 mg/kg doses, 20-day test period, FIG. 23): does not show any reversal during the 20-day test period
reduction of tumor volume ([5]; 1 mg/kg and 3 mg/kg doses, FIG. 23): effective in reducing tumor volume
anticancer activity compared with Apomabs 23.3 and 25.3 ([5]; FIG. 24): far exceeded the activity of Apomabs 23.3 and 25.3
reduction of (mean) tumor volume ([5]; single intraperitoneal dose 3 or 10 mg/kg, FIGS. 21 and 22, efficacy essentially the same as 16E2 version 1): highly efficient in reducing tumor volume
tumor growth delay (TGD) [2]: 53.0 days
tumor growth delay (TGD), percentage of control median TTE [2]: 355%
anticancer activity (Colo 205 xenograft): significant anticancer activity
TGD [3]: 193%
MTV(n), median tumor volume on Day 61 [3]: 776 mm^3
61-day survivors ([3]; ten mice per group): six
LTTFS (long-term tumor-free survivor) ([3]; ten mice per group): One
PR responses ([3]; ten mice per group): three
transient CR response ([3]; ten mice per group): one
anticancer activity (BxPC3 xenograft): far superior to the efficacy of gemcitabine
dose-response efficacy (H2122 xenograft; 1, 3 and 10 mg/kg single IV dose, FIG. 32): efficacious in all doses tested
mice with complete response (CR) (H2122 xenograft; 6 mice/group, without any reversal during the 70-day treatment period): All six
median TTE [4]: 2.0 days
regression responses ([4]; mouse, in vivo): No regression responses were documented
TGD, % of control [4]: 38%
TGD [4]: 7.1 days
anticancer activity [1]: effective when administered alone

Apomab 18.3: Apomab version with heavy chain framework residues E LVQ K
Bioassay activity with crosslinking [6]: None

Apomab 25.3: Apomab version with heavy chain framework residues Q LVQ K
anticancer activity (Colo 205 xenograft): significant anticancer activity

Apomab 27.3: Apomab version with heavy chain framework residues E VER K
Bioassay activity with crosslinking [6]: none
